Data reported in US20100160438A1, “NOVEL USE OF A NUTRACEUTICAL COMPOSITION IN ANIMAL FEED” (priority 2006, published 2010).

What was measured:
piglets = test: animal health status controlled daily during the feeding trial; format: in vivo, Large White×Landrace×Piétrain piglets; details: piglets fed alternately diet with or without 0.5% benzoic acid, 2 periods of 12 days
Description: The animal health status was controlled daily.
At the beginning of the study all the piglets had recovered from the anesthesia and the surgery. […] All the feedings and all the sampling could be achieved.

[1] = system: ileo-rectal anastomosed piglets; test: ileal apparent digestibility of nitrogen, energy and amino acids in ileo-rectal anastomosed piglets; format: in vivo, Large White×Landrace×Piétrain piglets; details: for ileal apparent lysine digestibility / ileal apparent threonine digestibility: mean ± σ
Experimental: Ten Large White×Landrace×Piétrain piglets were used. The animals were obtained from the GAEC Leclerc, F-68150 Ostheim and were 60 days old at the beginning of the experiment.
Each animal was subjected to an ileo-rectal anastomosis according to the techniques described by Laplace et al. (1994). After surgery piglets were housed individually in stainless-steel metabolic cages in an animal room under controlled temperature (22° C.), humidity (50%), ventilation (1100 m3/h) and lighting (12 hours light/12 hours darkness cycle). […] Meanwhile they were fed ad libitum a vegetal based diet for piglets and had free access to tap water.
During the experimental period, piglets were fed each and alternatively the vegetal based diet supplemented or not with 0.5% benzoic acid.
An indigestible tracer, chromium oxide, was added at a concentration of 0.4% to all the diets in order to measure ileal apparent digestibility.
The experience was composed of 2 periods of 12 days each divided in 10 adaptation days and in 2 ileal content sampling days.
Each animal was fed alternatively with each diet, so that each diet was tested 10 times.
For the digestibility estimations, samples of ileal content were collected daily, during the 2 sampling days, from 8 AM to 3 PM, as soon as they were produced. Immediately after each sampling, the collected contents were weighed and frozen at −80° C. All the daily samples from the same piglet were bulked. Before analysis the samples were freeze dried and grounded to a fine powder. A total of […] samples were obtained for each diet.
The dry matter contents of the freeze-dried samples were determined after drying overnight at 105° C., 20 g of the diets and 15 g of the ileal samples, according to the standard Association of Official Analytical Chemists (AOAC) procedure (1990).
The diets and ileal samples chromium oxide levels were determined by inductively coupled plasma-atomic emission spectrometry (ICP) after mineralization at 350° C. during 20 min with oxidant reagent.
Total energy levels were determined on the freeze-dried diets and ileal contents using a calorimeter IKA C7000.
Total nitrogen concentrations were determined on the freeze-dried diets and ileal contents using a nitrogen analyzer LECO FP-428.
Total amino acids were determined after an acidic hydrolysis on the freeze-dried diets and intestinal contents. Tryptophan analysis was omitted. Cys and Met were analyzed as cysteic acid and methionine sulfone after oxidation with formic acid and hydrogen peroxide followed by an acidic hydrolysis at 110° C. with 6 N HCl. All the other amino acids were analyzed after an acidic hydrolysis at 110° C. with 6 N HCl.
Individual amino acid concentrations were measured after derivation using Waters AccQ.Fluor reagent and quantified by reversed-phase HPLC by fluorescence detection after elution on a Pico.Tag C18 column.
Correcting with the dry matter, the chromium oxide and the diet tested parameter concentrations, all the tested parameter levels of the freeze-dried ileal contents were expressed in % apparent digestibility using the following formula:
[formula] • Ci=parameter concentration (% dry matter) in the ileal content • Cd=parameter concentration (% dry matter) in the diet • Mi=chromium oxide concentration (% dry matter) in the ileal content • Md=chromium oxide concentration (% dry matter) in the diet
For each test group, statistic analysis of the data involved the calculation of the mean and standard deviation of the mean as well as an analysis of variance followed by Student's “t” test to assess the significance of group differences between group A and benzoic acid supplemented group B for a probability of 10% for the amino acids and 5% for nitrogen and energy.

[2] = 0.5% benzoic acid in diet vs non-supplemented diet, statistically non-significant (p<0.10)
[3] = 0.5% benzoic acid in diet vs non-supplemented diet, statistically significant (p<0.05)
[4] = 0.5% benzoic acid in diet vs non-supplemented diet, statistically significant (p<0.10)
[5] = piglets, Benzoic acid 0.5% in diet
[6] = piglets, diet supplemented with 0.5% benzoic acid, mean ± SD
[7] = piglets, diet supplemented with 0.5% benzoic acid
[8] = piglets, diet supplemented with 0.5% benzoic acid, listed as Benzoic acid

O=C(O)c1ccccc1 [benzoic acid]
symptoms of illness or toxicosis (piglets): None of the animals showed during the experimental period, any symptoms of illness or toxicosis | increase of ileal apparent sulfured amino acids digestibility compared to the control group [1, 2]: 2.9% | increase of ileal apparent threonine digestibility compared to the control group [1, 2]: 2.7% | increase of ileal apparent energy digestibility compared to the control group [1, 3]: 4.4% | increase of ileal apparent total nitrogen digestibility compared to the control group [1, 3]: 5.3% | increase of ileal apparent branched chain amino acids digestibility compared to the control group [1, 4]: 2.9% | increase of ileal apparent essential amino acids digestibility compared to the control group [1, 4]: 2.9% | increase of ileal apparent lysine digestibility compared to the control group [1, 4]: 3.5% | increase of ileal apparent total amino acids digestibility compared to the control group [1, 4]: 2.9% | Mean digestibility ± σ, Ala (ileal apparent) [1, 5]: 75.3 ± 3.7% | Mean digestibility ± σ, Arg (ileal apparent) [1, 5]: 87.0 ± 1.8% | Mean digestibility ± σ, Asp + Asn (ileal apparent) [1, 5]: 79.1 ± 3.2% | Mean digestibility ± σ, Cys (ileal apparent) [1, 5]: 79.7 ± 4.4% | Mean digestibility ± σ, Glu + Gln (ileal apparent) [1, 5]: 86.7 ± 2.1% | Mean digestibility ± σ, Gly (ileal apparent) [1, 5]: 75.1 ± 4.4% | Mean digestibility ± σ, His (ileal apparent) [1, 5]: 86.4 ± 2.5% | Mean digestibility ± σ, Hyp (ileal apparent) [1, 5]: 41.4 ± 13.4% | Mean digestibility ± σ, Ile (ileal apparent) [1, 5]: 81.5 ± 3.6% | Mean digestibility ± σ, Leu (ileal apparent) [1, 5]: 84.5 ± 2.4% | Mean digestibility ± σ, Met (ileal apparent) [1, 5]: 80.7 ± 3.5% | Mean digestibility ± σ, Phe (ileal apparent) [1, 5]: 84.5 ± 2.3% | Mean digestibility ± σ, Pro (ileal apparent) [1, 5]: 85.8 ± 2.4% | Mean digestibility ± σ, Ser (ileal apparent) [1, 5]: 82.6 ± 2.9% | Mean digestibility ± σ, Tyr (ileal apparent) [1, 5]: 80.8 ± 2.8% | Mean digestibility ± σ, Val (ileal apparent) [1, 5]: 79.5 ± 3.6% | ileal apparent branched chain amino acids digestibility [1, 6]: 82.7±2.8% | ileal apparent energy digestibility [1, 6]: 72.6±4.7% | ileal apparent essential amino acids digestibility [1, 6]: 82.7±2.6% | ileal apparent sulfured amino acids digestibility [1, 6]: 80.1±3.5% | ileal apparent total amino acids digestibility [1, 6]: 82.0±2.7% | ileal apparent total nitrogen digestibility [1, 6]: 77.7±3.1% | ileal apparent lysine digestibility [1, 7]: 82.3±2.8% | ileal apparent threonine digestibility [1, 7]: 78.0±3.9% | ileal apparent lysine digestibility [1, 8]: 82.3 ± 2.8% | ileal apparent threonine digestibility [1, 8]: 78.0 ± 3.9%
